From patent US10336732B2, “1-heterocyclyl isochromanyl compounds and analogs for treating CNS disorders” (Sunovion Pharmaceuticals Inc., priority 2015, dated 2019) come the findings set out here.

In this assay the test system is mice. Description: Neuropharmacological assay (SmartCube), behavioral signature of compound-treated mice. Type of assay: in vivo. The note with it: i.p. 15 min before behavioral test, most efficacious dose(s) of 3 doses. Summed up:
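Mice received compound i.p. in NMP/PEG/propylene glycol vehicle at 3 doses, 15 min before testing. Video-captured behavior was algorithmically compared with a reference-drug signature database.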
`N#Cc1cccc2c1[C@H]([C@@H]1CCCN1)OCC2` [Compound I-38, (R)-1-((S)-pyrrolidin-2-yl)isochroman-8-carbonitrile]: the “AD: ADHD (probability that behavioral signature matches class)” value (shortened to “AD: ADHD”) is “+ (LOQ ≤ + <5%)”, the “AG: analgesic (probability that behavioral signature matches class)” value (“AG: analgesic” below) is recorded as “++ (5% ≤ ++ <25%)”, the “AX: anxiolytic (probability that behavioral signature matches class)” value (shortened to “AX: anxiolytic”) is “++ (5% ≤ ++ <25%)” and the “CE: cognitive enhancer (probability that behavioral signature matches class)” value (from here on “CE: cognitive enhancer”) was “+ (LOQ ≤ + <5%)”. Also, the “DP: anti-depressant (probability that behavioral signature matches class)” value (“DP: anti-depressant” for short) is on record as “++ (5% ≤ ++ <25%)”, the “HA: hallucinogen (probability that behavioral signature matches class)” value (from here on “HA: hallucinogen”) is “+ (LOQ ≤ + <5%)”, the “MS: mood stabilizer (probability that behavioral signature matches class)” value (shortened to “MS: mood stabilizer”) is “+ (LOQ ≤ + <5%)” and the “PS: anti-psychotic (probability that behavioral signature matches class)” value (shortened to “PS: anti-psychotic”) is “+ (LOQ ≤ + <5%)”. Further, the “SD: sedative hypnotic (probability that behavioral signature matches class)” value (from here on “SD: sedative hypnotic”) was “+ (LOQ ≤ + <5%)”, the “UN: uncharacterized CNS activity (probability that behavioral signature matches class)” value (“UN: uncharacterized CNS activity” below) is listed as “+ (LOQ ≤ + <5%)” and the “XG: anxiogenic (probability that behavioral signature matches class)” value (from here on “XG: anxiogenic”) is recorded as “+ (LOQ ≤ + <5%)”.

On to `Fc1ccc2c(c1)CCO[C@H]2[C@H]1CCN1` [Compound I-92, (R)-2-((R)-6-fluoroisochroman-1-yl)azetidine], for which the “AD: ADHD” value was “+ (LOQ ≤ + <5%)”, the “AG: analgesic” value was “++ (5% ≤ ++ <25%)”, the “AX: anxiolytic” value was “++ (5% ≤ ++ <25%)” and the “CE: cognitive enhancer” value is “+++ (25% ≤ +++ <50%)”. Besides, the “DP: anti-depressant” value is recorded as “++ (5% ≤ ++ <25%)”, the “HA: hallucinogen” value is reported as “+ (LOQ ≤ + <5%)”, the “MS: mood stabilizer” value is reported as “++ (5% ≤ ++ <25%)” and the “PS: anti-psychotic” value is “+++ (25% ≤ +++ <50%)”. Also, the “SD: sedative hypnotic” value is given as “+ (LOQ ≤ + <5%)”, the “UN: uncharacterized CNS activity” value is “+ (LOQ ≤ + <5%)” and the “XG: anxiogenic” value is reported as “+ (LOQ ≤ + <5%)”.

With `Fc1ccc2c(c1)[C@H]([C@H]1CCCN1)OCC2` [Compound I-7, (R)-2-((R)-7-fluoroisochroman-1-yl)pyrrolidine], the “AD: ADHD” value is given as “+ (LOQ ≤ + <5%)”, the “AG: analgesic” value is listed as “++ (5% ≤ ++ <25%)”, the “AX: anxiolytic” value is recorded as “++ (5% ≤ ++ <25%)” and the “CE: cognitive enhancer” value is recorded as “++ (5% ≤ ++ <25%)”. Further, the “DP: anti-depressant” value was “++ (5% ≤ ++ <25%)”, the “HA: hallucinogen” value is recorded as “+ (LOQ ≤ + <5%)”, the “MS: mood stabilizer” value is “+ (LOQ ≤ + <5%)” and the “PS: anti-psychotic” value is recorded as “++ (5% ≤ ++ <25%)”. The “SD: sedative hypnotic” value is on record as “+ (LOQ ≤ + <5%)”, the “UN: uncharacterized CNS activity” value is “+++ (25% ≤ +++ <50%)” and the “XG: anxiogenic” value is “+ (LOQ ≤ + <5%)”.

As for `Fc1cccc2c1CCO[C@H]2[C@H]1CCCN1` [Compound I-15, (R)-2-((R)-5-fluoroisochroman-1-yl)pyrrolidine], the “AD: ADHD” value was “+ (LOQ ≤ + <5%)”, the “AG: analgesic” value is listed as “++ (5% ≤ ++ <25%)”, the “AX: anxiolytic” value is on record as “+++ (25% ≤ +++ <50%)” and the “CE: cognitive enhancer” value is “++ (5% ≤ ++ <25%)”. The “DP: anti-depressant” value is given as “++ (5% ≤ ++ <25%)”, the “HA: hallucinogen” value is reported as “+ (LOQ ≤ + <5%)”, the “MS: mood stabilizer” value was “+ (LOQ ≤ + <5%)” and the “PS: anti-psychotic” value is reported as “++ (5% ≤ ++ <25%)”. For the same compound, the “SD: sedative hypnotic” value is listed as “+ (LOQ ≤ + <5%)”, the “UN: uncharacterized CNS activity” value was “+ (LOQ ≤ + <5%)” and the “XG: anxiogenic” value is “+ (LOQ ≤ + <5%)”.

With `c1ccc2c(c1)CCO[C@H]2[C@@H]1COCCN1` [Compound I-76, (S)-3-((R)-isochroman-1-yl)morpholine], the “AD: ADHD” value was “+ (LOQ ≤ + <5%)”, the “AG: analgesic” value is on record as “++ (5% ≤ ++ <25%)”, the “AX: anxiolytic” value is listed as “++ (5% ≤ ++ <25%)” and the “CE: cognitive enhancer” value was “+ (LOQ ≤ + <5%)”. The “DP: anti-depressant” value is recorded as “++ (5% ≤ ++ <25%)”, the “HA: hallucinogen” value is reported as “+ (LOQ ≤ + <5%)”, the “MS: mood stabilizer” value is listed as “+ (LOQ ≤ + <5%)” and the “PS: anti-psychotic” value is recorded as “++ (5% ≤ ++ <25%)”. The “SD: sedative hypnotic” value was “+ (LOQ ≤ + <5%)”, the “UN: uncharacterized CNS activity” value is given as “+ (LOQ ≤ + <5%)” and the “XG: anxiogenic” value is “+ (LOQ ≤ + <5%)”.

`Fc1ccc2c(c1)[C@@H]([C@@H]1CCN1)OCC2` [Compound I-85, (S)-2-((S)-7-fluoroisochroman-1-yl)azetidine]: the “AD: ADHD” value is “+ (LOQ ≤ + <5%)”, the “AG: analgesic” value was “+ (LOQ ≤ + <5%)”, the “AX: anxiolytic” value is recorded as “++ (5% ≤ ++ <25%)” and the “CE: cognitive enhancer” value was “++ (5% ≤ ++ <25%)”. Moreover, the “DP: anti-depressant” value is given as “++ (5% ≤ ++ <25%)”, the “HA: hallucinogen” value is given as “+ (LOQ ≤ + <5%)”, the “MS: mood stabilizer” value was “+ (LOQ ≤ + <5%)” and the “PS: anti-psychotic” value is “+++ (25% ≤ +++ <50%)”. The “SD: sedative hypnotic” value is “++ (5% ≤ ++ <25%)”, the “UN: uncharacterized CNS activity” value is “++ (5% ≤ ++ <25%)” and the “XG: anxiogenic” value is “+ (LOQ ≤ + <5%)”.

Turning to `c1cc(-c2ccc3c(c2)CCO[C@H]3[C@@H]2CCCN2)on1` [Compound I-56, 5-((R)-1-((S)-pyrrolidin-2-yl)isochroman-6-yl)isoxazole], the “AD: ADHD” value is “++ (5% ≤ ++ <25%)”, the “AG: analgesic” value is “+++ (25% ≤ +++ <50%)”, the “AX: anxiolytic” value is “++ (5% ≤ ++ <25%)” and the “CE: cognitive enhancer” value is on record as “++ (5% ≤ ++ <25%)”. For the same compound, the “DP: anti-depressant” value is recorded as “+++ (25% ≤ +++ <50%)”, the “HA: hallucinogen” value is “+ (LOQ ≤ + <5%)”, the “MS: mood stabilizer” value was “++ (5% ≤ ++ <25%)” and the “PS: anti-psychotic” value is reported as “++ (5% ≤ ++ <25%)”. Moreover, the “SD: sedative hypnotic” value is “+ (LOQ ≤ + <5%)”, the “UN: uncharacterized CNS activity” value is reported as “+ (LOQ ≤ + <5%)” and the “XG: anxiogenic” value was “+ (LOQ ≤ + <5%)”.

As for `Clc1ccc2c(c1)[C@@H]([C@@H]1CCCN1)OCC2` [Compound I-30, (S)-2-((S)-7-chloroisochroman-1-yl)pyrrolidine], the “AD: ADHD” value is given as “+ (LOQ ≤ + <5%)”, the “AG: analgesic” value is given as “++ (5% ≤ ++ <25%)”, the “AX: anxiolytic” value is listed as “+++ (25% ≤ +++ <50%)” and the “CE: cognitive enhancer” value was “++ (5% ≤ ++ <25%)”. Also, the “DP: anti-depressant” value was “++ (5% ≤ ++ <25%)”, the “HA: hallucinogen” value is recorded as “+ (LOQ ≤ + <5%)”, the “MS: mood stabilizer” value is “+ (LOQ ≤ + <5%)” and the “PS: anti-psychotic” value is “+++ (25% ≤ +++ <50%)”. The “SD: sedative hypnotic” value is given as “++ (5% ≤ ++ <25%)”, the “UN: uncharacterized CNS activity” value was “+ (LOQ ≤ + <5%)” and the “XG: anxiogenic” value is listed as “+ (LOQ ≤ + <5%)”.

In the case of `Clc1ccc2c(c1)CCO[C@@H]2[C@H]1CCCN1` [Compound I-36, (R)-2-((S)-6-chloroisochroman-1-yl)pyrrolidine], the “AD: ADHD” value is “+ (LOQ ≤ + <5%)”, the “AG: analgesic” value is on record as “++ (5% ≤ ++ <25%)”, the “AX: anxiolytic” value is “++ (5% ≤ ++ <25%)” and the “CE: cognitive enhancer” value is “++ (5% ≤ ++ <25%)”. Moreover, the “DP: anti-depressant” value is on record as “++ (5% ≤ ++ <25%)”, the “HA: hallucinogen” value is recorded as “+ (LOQ ≤ + <5%)”, the “MS: mood stabilizer” value is recorded as “++ (5% ≤ ++ <25%)” and the “PS: anti-psychotic” value is recorded as “+++ (25% ≤ +++ <50%)”. The “SD: sedative hypnotic” value is given as “+ (LOQ ≤ + <5%)”, the “UN: uncharacterized CNS activity” value is reported as “++ (5% ≤ ++ <25%)” and the “XG: anxiogenic” value is given as “+ (LOQ ≤ + <5%)”.
